What was measured:
[1] = tested on: ras-transformed NIH/3T3 cells
[2] = tested on: PAPH; test: inhibition of PAPH / DAG formation in specific activation pathway; type: biochemical, human; conditions: specific activation pathway that does not involve PI
Excerpt: The compounds and pharmaceutical compositions of the invention include inhibitors of subspecies of LPAAT and PAPH enzymes with substrate specificity for intermediates with 1,2-diunsaturated and 1-alkyl, 2-unsaturated subspecies. One representative example of such an inhibitor (although not within the genus of inventive compounds) is PTX. […] It should be emphasized that the compounds of the invention affect that subset of PAPH and LPAAT that relates to substrates with unsaturated fatty acids other than arachidonate in the sn-2 position, not the housekeeping forms of these enzymes that serve the PI pathway.
(§1) One in vitro assay measures inhibition of the relevant enzymes lysophosphatidic acid acyltransferase (LPAAT) and phosphatidic acid phosphoryl hydrolase (PAPH). […] It is important to note that the assay method permits discrimination between various forms of PA and DAG so that those relevant to the pathway affected by the (R) or (S) compounds of the invention can be measured directly. […] Thus, the relevant unsaturated (non-arachidonic) PA and DAG subspecies may be detected. […]

[3] = tested on: polymorphonuclear leukocytes; conditions: cited from earlier work
[4] = tested on: tumor necrosis factor (TNF); conditions: normal volunteers; cited from earlier work
[5] = tested on: LPAAT; test: formation of remodeled PA at LPAAT; type: biochemical
Excerpt: Even in the presence of PTX, cells continue to form PA through the action of PLD, and DAG is also formed through the action of phospholipase C on PC and PI. The latter pathway are not inhibited by the inventive compounds or PTX. In PTX-treated cells, DAG derived from remodeled and PLA-generated PA is diminished (e.g., 1,2-sn-dioleoyl DAG, 1-alkyl, 2-linoleoyl DAG and 1-alkyl, 2-docosahexaneolyl DAG). Therefore, the inventive compounds and PTX inhibit the formation of only a certain species of PA and DAG by selectively inhibiting a specific second messenger pathway that is only activated in cells by noxious stimuli, but is not used to signal normal cellular housekeeping functions.
as §1

[6] = tested on: L929 cells; test: TNF-α-mediated cytotoxicity in L929 cells; type: cell-based, murine; conditions: human TNF-α 300 pg/ml; FIG. 9
Description: An inventive compound can be assayed for activity protecting TNF-mediated cytotoxicity. In this assay, L929 murine fibroblast cells (10^4 cells per well) are incubated with either compounds at varying doses and media control for two hrs. […] The cells plus (or minus) drug plus TNF were incubated for 40 hrs at 37° C. The media is removed and replaced with fresh media containing 2% serum and 10 μg/ml of BCECF fluorescent dye and incubated for 30 min. The fluorescent dye-containing media is removed and replaced with PBS (phosphate buffered saline) and each well was assayed for fluorescence.
This assay is a model for septic shock. L929 cells (10^5) were treated with human TNF-α at 300 pg/ml in RPMI media containing 10% fetal calf serum with or without compound no. One day later, the cells were stained for viability using the fluorescent dye BCECF and fluorescence of the samples was analyzed using a Milipore plate reader.

[7] = tested on: ras transformation in NIH/3T3 cells; test: generation of DAG and PA in ras-transformed NIH/3T3 cells; type: cell-based; conditions: pretreatment of cells; 4-12 hours
Excerpt: For example, activating ras mutations result in increased generation of DAG upon stimulation with mitogens, although the sources of DAG differ between experimental systems. In nontransformed renal mesangial cells, IL-1β stimulation increased PLA2 and LPAAT activation, resulting in generation of sn-2 unsaturated PA and subsequent hydrolysis to DAG by phosphatidate phosphohydrolase. The ras transformation in NIH/3T3 cells upregulates serum-stimulated generation of DAG and PA. Particular species of DAG that is stimulated by serum is dioleoyl and of PA are dilinoleoyl and dioleoyl. […] The inhibition occurs either through suppressing the generation of PA de novo from lysoPA, or through inhibition of one or both arms of the Lands cycle. […] Therefore, the ras transformation mediates an upregulation of PA through indirect stimulation of PLA2 and/or LPAAT activity.

CC(=O)CCCCn1c(=O)c2c(ncn2C)n(C)c1=O [PTX, 1-(5-oxohexyl)-3,7-dimethylxanthine]
inhibition of ras-transformed NIH/3T3 cells relative to parental cells [1]: inhibits ras-transformed NIH/3T3 cells more than parental cells
reversibility / cytotoxicity of inhibition [1]: reversible and is not associated with significant cytotoxicity
blocking of PAPH [2]: blocks PAPH in a specific activation pathway
inhibition of cytokine activity to affect chemotaxis ([3]; U.S. Pat. Nos. 4,965,271 and 5,096,906): inhibit activity of certain cytokines to affect chemotaxis
stimulation of chemotaxis in polymorphonuclear leukocytes ([3]; in response to a stimulator of chemotaxis, U.S. Pat. No. 4,636,507): stimulate chemotaxis in polymorphonuclear leukocytes
TNF levels [4]: TNF levels were higher among PTX recipients
DAG derived from remodeled and PLA-generated PA ([5]; PTX-treated cells): diminished
formation of remodeled PA ([5]; in vitro, high PTX concentrations): blocks formation of remodeled PA through the PA/DAG pathway at high PTX concentrations
protection of L929 cells from TNF-induced cytotoxicity [6]: inhibited TNF-induced cytotoxicity in a dose dependent manner
generation of phospholipid second messengers (DAG, PA) [7]: blocks generation of these phospholipid second messengers
